Reference: ChEMBL document CHEMBL1155276, “Anti-listerial activity and structure-activity relationships of the six major tyrocidines, cyclic decapeptides from Bacillus aneurinolyticus” (Bioorg Med Chem, 2009)
Non-standard residues stand in square brackets, D forms with d. Residues, ends and D or L forms follow the SMILES beside them. Orn = NCCC[C@H](N)C(=O)O

Assays:
[1] = test system: Listeria monocytogenes; assay: Antibacterial activity against leucocin A-sensitive Listeria monocytogenes B73 after 16 hrs by micro-gel well diffusion assay; format: functional
[2] = test system: Listeria monocytogenes; assay: Antilysterial activity against leucocin A-sensitive Listeria monocytogenes B73 assessed as bacterial lysis per min at 10 uM by broth microdilution assay; format: functional
[3] = test system: Listeria monocytogenes; assay: Antilysterial activity against leucocin A-sensitive Listeria monocytogenes B73 assessed as bacterial lysis half life at 10 uM by broth microdilution assay; format: functional, organism-based
[4] = test system: Listeria monocytogenes; assay: Antibacterial activity against leucocin A-resistant Listeria monocytogenes B73-MR1 after 16 hrs by micro-gel well diffusion assay; format: functional
[5] = test system: Micrococcus luteus; assay: Antibacterial activity against Micrococcus luteus NCTC 8340 after 16 hrs by micro-gel well diffusion assay; format: functional
[6] = test system: Listeria monocytogenes; assay: Antibacterial activity against leucocin A-resistant Listeria monocytogenes B73-MR1 after 16 hrs by broth microdilution assay; format: functional, organism-based; settings: B73-MR1, 16 h
[7] = test system: Micrococcus luteus; assay: Antibacterial activity against Micrococcus luteus NCTC 8340 after 16 hrs by broth microdilution assay; format: functional, organism-based; settings: NCTC 8340, 16 h
[8] = test system: Listeria monocytogenes; assay: Antilysterial activity against leucocin A-sensitive Listeria monocytogenes B73 assessed as bacterial lysis at 10 uM after 60 mins by broth microdilution assay; format: functional
[9] = test system: Listeria monocytogenes; assay: Antibacterial activity against leucocin A-sensitive Listeria monocytogenes B73 after 16 hrs by broth microdilution assay; format: functional, organism-based; settings: B73, 16 h
[10] = test system: Escherichia coli; assay: Antibacterial activity against Escherichia coli HB101 at 200 ug/mL after 16 hrs by broth microdilution assay; format: functional

| SMILES | ICmax [1] | Activity [2] | T1/2 [3] | ICmax [4] | ICmax [5] | IC50 [6] | IC50 [7] | Activity [8] | IC50 [9] | Activity [10] |
| --- | --- | --- | --- | --- | --- | --- | --- | --- | --- | --- |
| CC(C)C[C@@H]1NC(=O)[C@H](CCCN)NC(=O)[C@H](C(C)C)NC(=O)[C@@H]2CCCN2C(=O)[C@@H](Cc2ccccc2)NC(=O)[C@H](CC(C)C)NC(=O)[C@H](CCCN)NC(=O)[C@H](C(C)C)NC(=O)[C@@H]2CCCN2C(=O)[C@@H](Cc2ccccc2)NC1=O [GRAMICIDIN S] (cyclo(L[dF]PV[Orn]L[dF]PV[Orn])) | 11 µM | 1.61% | 38.5 min | 6.2 µM | 31 µM | 3.9 µM | 6.7 µM | 70% | 6.6 µM | – |
| CC(C)C[C@@H]1NC(=O)[C@H](CCCCN)NC(=O)[C@H](C(C)C)NC(=O)[C@H](Cc2ccc(O)cc2)NC(=O)[C@H](CCC(N)=O)NC(=O)[C@H](CC(N)=O)NC(=O)[C@@H](Cc2ccccc2)NC(=O)[C@H](Cc2ccccc2)NC(=O)[C@@H]2CCCN2C(=O)[C@@H](Cc2ccccc2)NC1=O [TYROCIDINE A1] | 38 µM | 1.47% | 32.2 min | 16 µM | 72 µM | 10 µM | 26 µM | 62% | 18 µM | <50% |
| CC(C)C[C@@H]1NC(=O)[C@H](CCCN)NC(=O)[C@H](C(C)C)NC(=O)[C@H](Cc2ccc(O)cc2)NC(=O)[C@H](CCC(N)=O)NC(=O)[C@H](CC(N)=O)NC(=O)[C@@H](Cc2ccccc2)NC(=O)[C@H](Cc2ccccc2)NC(=O)[C@@H]2CCCN2C(=O)[C@@H](Cc2ccccc2)NC1=O [TYROCIDINE A] (cyclo(F[dF]NQYV[Orn]L[dF]P)) | 25 µM | 1.62% | 32.3 min | 16 µM | 70 µM | 9.9 µM | 22 µM | 59% | 13 µM | <50% |
| CC(C)C[C@@H]1NC(=O)[C@H](CCCCN)NC(=O)[C@H](C(C)C)NC(=O)[C@H](Cc2ccc(O)cc2)NC(=O)[C@H](CCC(N)=O)NC(=O)[C@H](CC(N)=O)NC(=O)[C@@H](Cc2ccccc2)NC(=O)[C@H](Cc2c[nH]c3ccccc23)NC(=O)[C@@H]2CCCN2C(=O)[C@@H](Cc2ccccc2)NC1=O [TYROCIDINE B1] | 15 µM | 1.68% | 29.6 min | 10 µM | 8.9 µM | 6.7 µM | 4.2 µM | 63% | 8.1 µM | <50% |
| CC(C)C[C@@H]1NC(=O)[C@H](CCCN)NC(=O)[C@H](C(C)C)NC(=O)[C@H](Cc2ccc(O)cc2)NC(=O)[C@H](CCC(N)=O)NC(=O)[C@H](CC(N)=O)NC(=O)[C@@H](Cc2ccccc2)NC(=O)[C@H](Cc2c[nH]c3ccccc23)NC(=O)[C@@H]2CCCN2C(=O)[C@@H](Cc2ccccc2)NC1=O [TYROCIDINE B] | 15 µM | 1.53% | 28.8 min | 12 µM | 9.9 µM | 7.7 µM | 6.5 µM | 64% | 10 µM | <50% |
| CC(C)C[C@@H]1NC(=O)[C@H](CCCCN)NC(=O)[C@H](C(C)C)NC(=O)[C@H](Cc2ccc(O)cc2)NC(=O)[C@H](CCC(N)=O)NC(=O)[C@H](CC(N)=O)NC(=O)[C@@H](Cc2c[nH]c3ccccc23)NC(=O)[C@H](Cc2c[nH]c3ccccc23)NC(=O)[C@@H]2CCCN2C(=O)[C@@H](Cc2ccccc2)NC1=O [TYROCIDINE C1] | 22 µM | 1.55% | 27.5 min | 16 µM | 15 µM | 7.5 µM | 7.3 µM | 60% | 9.3 µM | <50% |
| CC(C)C[C@@H]1NC(=O)[C@H](CCCN)NC(=O)[C@H](C(C)C)NC(=O)[C@H](Cc2ccc(O)cc2)NC(=O)[C@H](CCC(N)=O)NC(=O)[C@H](CC(N)=O)NC(=O)[C@@H](Cc2c[nH]c3ccccc23)NC(=O)[C@H](Cc2c[nH]c3ccccc23)NC(=O)[C@@H]2CCCN2C(=O)[C@@H](Cc2ccccc2)NC1=O [TYROCIDINE C] | 13 µM | 1.48% | 31.2 min | 11 µM | 9 µM | 7 µM | 6.4 µM | 66% | 9.5 µM | <50% |
| CC(C)C[C@@H]1NC(=O)[C@H](CCCN)NC(=O)[C@H](C(C)C)NC(=O)[C@H](Cc2ccc(O)cc2)N[C@@H](CCC(=O)O)C(=O)N[C@@H](CC(N)=O)C(=O)[C@@H](Cc2ccccc2)NC(=O)[C@H](Cc2ccccc2)NC(=O)[C@@H]2CCCN2C(=O)[C@@H](Cc2ccccc2)NC1=O [TYROTHRICIN] | 21 µg/mL | – | – | 29 µg/mL | 6.3 µg/mL | 9.7 mg/L | 3.5 mg/L | – | 12 mg/L | – |
